Test results reported in PMC12040169 (PLOS Biology, 2025).

Experiment: in vitro
Details: human, hela cells, % viability

| SMILES | viability at 28.5 h, 10 µM |
| --- | --- |
| CN(C)CCNC(=O)c1ccc(-c2cnc3[nH]c(=O)n(CC4CC4)c3n2)cc1 [CBK064578] | 94.6% |
| O=C(NC1CCCC1)c1ccc(-c2cnc3[nH]c(=O)n(C4CCCCC4)c3n2)cc1 [CBK064582] | 113% |
| COc1cccc(-c2cnc3[nH]c(=O)n(Cc4ccc(Cl)cc4)c3n2)c1 [CBK064596] | 111% |
| COCCCn1c(=O)[nH]c2ncc(-c3cnc(OC)nc3)nc21 [CBK064618] | 92% |
| COc1cc(-c2cnc3[nH]c(=O)n(CCc4ccncc4)c3n2)cc(OC)c1OC [CBK064620] | 96.9% |
| COc1ccccc1-c1cnc2[nH]c(=O)n(Cc3ccc(F)c(Cl)c3)c2n1 [CBK064662] | 103% |
| CN(C)c1cccc(-c2cnc3[nH]c(=O)n(-c4ccc5[nH]ccc5c4)c3n2)c1 [CBK064682] | 103% |
| COc1ccccc1-c1cnc2[nH]c(=O)n(CC(C)(C)CO)c2n1 [CBK064690] | 90.2% |
| COc1ccccc1-c1cnc2[nH]c(=O)n([C@@H](C)c3ccccc3)c2n1 [CBK064717] | 93.3% |
| CC(C)(CO)Cn1c(=O)[nH]c2ncc(-c3ccco3)nc21 [CBK064721] | 98.8% |
| COc1cc(-c2cnc3[nH]c(=O)n(Cc4ccco4)c3n2)cc(OC)c1OC [CBK064755] | 96.3% |
| COc1ccc(-c2cnc3[nH]c(=O)n(CCN4CCOCC4)c3n2)cc1 [CBK064782] | 103% |
| CN1CCN(C(=O)c2ccc(-c3cnc4[nH]c(=O)n(CCN5CCOCC5)c4n3)cc2)CC1 [CBK064800] | 114% |
| O=c1[nH]c2ncc(-c3cncc4ccccc34)nc2n1CCCO [CBK064814] | 96% |
| O=C(NC1CCCC1)c1ccc(-c2cnc3[nH]c(=O)n(CCCN4CCOCC4)c3n2)cc1 [CBK064829] | 102% |
| CC(C)[C@@H](CO)n1c(=O)[nH]c2ncc(-c3cccc4cccnc34)nc21 [CBK064848] | 102% |
| CC(=O)Nc1cccc(-c2cnc3[nH]c(=O)n(C4CC4)c3n2)c1 [CBK064859] | 103% |
| COc1ccc(-c2cnc3[nH]c(=O)n(C4CC4)c3n2)cc1 [CBK064907] | 86.9% |
| COc1ncc(-c2cnc3[nH]c(=O)n(C4CC4)c3n2)cn1 [CBK064908] | 89.1% |
| COCCCn1c(=O)[nH]c2ncc(-c3cc(OC)c(OC)c(OC)c3)nc21 [CBK064937] | 91.8% |
| CC(C)[C@H](CO)n1c(=O)[nH]c2ncc(-c3cccc4ncccc34)nc21 [CBK064955] | 99.5% |
| CCCC/C=C/c1cnc2[nH]c(=O)n(Cc3ccc(S(N)(=O)=O)cc3)c2n1 [CBK064956] | 98.8% |

| SMILES | viability at 28.5 h, 10 µM |
| --- | --- |
| CC(C)[C@@H](CO)n1c(=O)[nH]c2ncc(-c3cccc4ccccc34)nc21 [CBK064961] | 98.6% |
| CN(C)c1ccc(-c2cnc3[nH]c(=O)n(C4CCCC4)c3n2)cc1 [CBK064964] | 98% |
| O=c1[nH]c2ncc(-c3cncc4ccccc34)nc2n1C1CCC(O)CC1 (stereo not shown) [CBK065013] | 108% |
| CC(C)[C@@H](CO)n1c(=O)[nH]c2ncc(-c3ccco3)nc21 [CBK065018] | 106% |
| CC(C)[C@H](CO)n1c(=O)[nH]c2ncc(-c3ccc(OC(F)(F)F)cc3)nc21 [CBK065037] | 105% |
| C[C@@H](c1ccccc1)n1c(=O)[nH]c2ncc(-c3cccc(/C=C/C(=O)O)c3)nc21 [CBK065040] | 106% |
| CC(C)[C@@H](CO)n1c(=O)[nH]c2ncc(-c3cccc(/C=C/C(=O)O)c3)nc21 [CBK065043] | 88.6% |
| O=c1[nH]c2ncc(-c3ccsc3)nc2n1CCCO [CBK065044] | 94.9% |
| CN(C)c1cccc(-c2cnc3[nH]c(=O)n(CCCO)c3n2)c1 [CBK065052] | 102% |
| COc1ncc(-c2cnc3[nH]c(=O)n(Cc4ccc(S(C)(=O)=O)cc4)c3n2)cn1 [CBK065053] | 103% |
| CS(=O)(=O)c1ccc(Cn2c(=O)[nH]c3ncc(-c4cccc(/C=C/C(=O)O)c4)nc32)cc1 [CBK065059] | 97.7% |
| O=c1[nH]c2ncc(-c3cccc4ncccc34)nc2n1CCCO [CBK065060] | 104% |
| O=c1[nH]c2ncc(-c3cccnc3)nc2n1CCN1CCOCC1 [CBK065070] | 103% |
| O=c1[nH]c2ncc(-c3cccc(CO)c3)nc2n1CC1CC1 [CBK065088] | 63.9% |
| NC(=O)c1ccc(-c2cnc3[nH]c(=O)n(CCCN4CCOCC4)c3n2)cc1 [CBK065092] | 102% |
| COCCCn1c(=O)[nH]c2ncc(-c3cccc(CO)c3)nc21 [CBK065104] | 99.4% |
| COCCCn1c(=O)[nH]c2ncc(-c3cccc(/C=C/C(=O)O)c3)nc21 [CBK065107] | 104% |
| COc1cc(-c2cncc(Nc3ccc4c(c3)OC(F)(F)C(F)(F)O4)n2)cc(OC)c1OC [CBK065138] | 94.4% |
| CN1CCN(c2ccc(-c3cncc(N4CCN(c5ccncc5)CC4)n3)cn2)CC1 [CBK065144] | 92.9% |
| COc1ncc(-c2cncc(N3CCN(CCO)CC3)n2)c(OC)n1 [CBK065146] | 84.8% |
| CCCC/C=C/c1cncc(Nc2cc(OC)c(OC)c(OC)c2)n1 [CBK065155] | 102% |
| O=C(c1ccco1)N1CCN(c2cncc(-c3ccc4ccccc4c3)n2)CC1 [CBK065184] | 89% |

| SMILES | viability at 28.5 h, 10 µM |
| --- | --- |
| COc1cc(Nc2cncc(-c3cccnc3)n2)cc(OC)c1OC [CBK065201] | 93.7% |
| OCc1ccccc1-c1cncc(N2CCN(c3ccncc3)CC2)n1 [CBK065208] | 113% |
| CC(=O)Nc1cccc(-c2cncc(NCc3cccc(Cl)c3)n2)c1 [CBK065236] | 97.2% |
| c1csc(CNc2cncc(-c3ccncc3)n2)c1 [CBK065238] | 97.3% |
| CC(C)(CO)CNc1cncc(-c2cccc(C(F)(F)F)c2)n1 [CBK065248] | 102% |
| COc1cc(-c2cncc(NCc3ccncc3)n2)cc(OC)c1OC [CBK065263] | 98.9% |
| COc1ncc(-c2cncc(N[C@H](C)c3ccccc3)n2)c(OC)n1 [CBK065267] | 92.4% |
| CN(C)CCN(C)c1cncc(-c2cccc(N)c2)n1 [CBK065270] | 87.3% |
| C[C@@H](Nc1cncc(-c2cccc(N)c2)n1)c1ccccc1 [CBK065273] | 87.1% |
| COc1cc(-c2cncc(NCc3cccc(Cl)c3)n2)cc(OC)c1OC [CBK065284] | 115% |
| COc1ncc(-c2cncc(NCCc3ccccn3)n2)c(OC)n1 [CBK065287] | 97.7% |
| Fc1cccc(-c2cncc(NCCc3c[nH]c4ccccc34)n2)c1 [CBK065288] | 94.7% |
| CC(=O)Nc1cccc(-c2cncc(NCc3ccco3)n2)c1 [CBK065290] | 100% |
| CN1CCN(c2cncc(-c3ccccc3CO)n2)CC1 [CBK065302] | 91.8% |
| CCCC/C=C/c1cncc(N[C@H](CO)C(C)C)n1 [CBK065314] | 97% |
| OCc1ccccc1-c1cncc(NCc2ccc3c(c2)OCO3)n1 [CBK065318] | 89.2% |
| N#Cc1cccc(Nc2cncc(-c3cccc(N)c3)n2)c1 [CBK065319] | 89.1% |
| COc1ccc(C(C)C)cc1-c1cncc(NCCc2ccccn2)n1 [CBK065325] | 94.9% |
| OCc1ccccc1-c1cncc(NCc2cccs2)n1 [CBK065345] | 104% |
| COc1ccc(C(C)C)cc1-c1cncc(NCc2ccc3c(c2)OCO3)n1 [CBK065348] | 95.2% |
| COc1ccc(C(C)C)cc1-c1cncc(N[C@@H](CO)C(C)C)n1 [CBK065356] | 102% |
| O=C(O)/C=C/c1cccc(-c2cncc(NCCc3ccncc3)n2)c1 [CBK065358] | 99.5% |

| SMILES | viability at 28.5 h, 10 µM |
| --- | --- |
| CC(=O)Nc1cccc(-c2cncc(NCCc3ccccn3)n2)c1 [CBK065359] | 103% |
| CN(C)CCNC(=O)c1cccc(-c2cncc(NCc3ccc4c(c3)OCO4)n2)c1 [CBK065361] | 110% |
| COc1ccc(C(C)C)cc1-c1cncc(N(C)CCN(C)C)n1 [CBK065364] | 105% |
| COc1ccc(-c2cncc(N3CCN(C)CC3)n2)cc1 [CBK065378] | 91.8% |
| NC(=O)c1ccc(-c2cncc(NCc3ccco3)n2)cc1 [CBK065383] | 85.6% |
| NC(=O)c1ccc(-c2cncc(N3CCN(CCO)CC3)n2)cc1 [CBK065392] | 96.5% |
| COc1cncc(-c2cncc(N3CCN(CCN(C)C)CC3)n2)c1 [CBK065393] | 120% |
| COc1ccc(-c2cncc(NCc3ccncc3)n2)cc1 [CBK065394] | 111% |
| COc1cncc(-c2cncc(Nc3cc(OC)c(OC)c(OC)c3)n2)c1 [CBK065397] | 95.1% |
| OCc1ccccc1-c1cncc(Nc2cccc(Cl)c2)n1 [CBK065400] | 102% |
| COc1cc(-c2cncc(NCCc3ccncc3)n2)cc(OC)c1OC [CBK065405] | 94.4% |
| CCNc1cncc(-c2ccc(C(N)=O)cc2)n1 [CBK065414] | 96.2% |
| CCCC/C=C/c1cncc(NCCO)n1 [CBK065419] | 109% |
| O=C(NCCO)c1cccc(-c2cncc(NCCCN3CCOCC3)n2)c1 [CBK065432] | 99.4% |
| CCCNc1cncc(-c2cccc(CO)c2)n1 [CBK065433] | 95.7% |
| COc1cncc(-c2cncc(Nc3ccccc3)n2)c1 [CBK065435] | 113% |
| CN(C)CCN1CCN(c2cncc(-c3cccc(C(=O)O)c3)n2)CC1 [CBK065443] | 104% |
| CCCNc1cncc(-c2cccc(O)c2)n1 [CBK065447] | 109% |
| CN(C)CCN(C)c1cncc(-c2cccc(/C=C/C(=O)O)c2)n1 [CBK065451] | 99.5% |
| CC(=O)Nc1cccc(-c2cncc(N[C@H](CO)C(C)C)n2)c1 [CBK065475] | 98.2% |
| COc1cc(-c2cncc(NC(C)CCCC(C)(C)O)n2)cc(OC)c1OC (stereo not shown) [CBK065481] | 102% |
| c1ccc(N2CCN(c3cncc(-c4cccs4)n3)CC2)nc1 [CBK065502] | 102% |
